How the values were obtained:
[1] = system: 3-nitrotyrosine protein nitration in astrocytes; experiment: Immunofluorescence of 3-nitrotyrosine adducts (protein nitration) in primary astrocytes treated with MPTP and cytokines; assay type: cell-based, mouse
Description: Immunofluorescence. Primary astrocytes were grown to confluence on 20 mm serum-coated glass coverslips and treated with saline or MPTP (10 μM), TNF-α (10 pg/ml), and IFN-γ (1 ng/ml) with or without DIM-C-pPhtBu (10 μM), rosiglitazone (10 μM), the NOS2 inhibitor AMT (25 nM) or NOS 1 inhibitor 7-NI (10 μM), or a DMSO vehicle control 8 hours prior to analysis. Immunofluorescence to confirm culture purity was conducted on cells grown to confluence on the 20 mm glass coverslips. Blocking and antibody hybridization was conducted in 1% BSA (w/v) in PBS, and all washes were conducted in PBS. Images were acquired using a Zeiss 20× air PlanApochromat objective and 6-8 microscopic fields were examined per treatment group over no less than three independent experiments. Fluorescent secondary antibodies were used to detect GFAP (488 nmcx/519 nmcm) and Iba1 or nitrosylated protein (647 nmcx/668 nmcm), respectively, while mounting medium containing DAPI (360 nmcx/460 nmcm) was used to identify cell nuclei.
The effect of NOS2 induction by MPTP and inflammatory cytokines on global protein nitration following NO/peroxynitrite (ONOO—) formation in astrocytes was examined by immunofluorescence (FIG. 3). Immunofluorescence using antibodies against GFAP (FITC) and 3-nitrotyrosine adducts (Cy5) was employed to measure the extent of protein nitration within astrocytes treated with MPTP and cytokines, with or without inclusion of DIM-C-pPhtBu (10 μM), rosiglitazone (10 μM), the high-affinity NOS2 inhibitor AMT (25 nM), the NOSI inhibitor 7-NI (10 μM) or a DMSO vehicle control. […] Co-treatment of astroytes with DIM-C-pPhtBu prevented MPTP-induced increases in nitration, resulting in similar levels of 3-nitrotyrosine adducts as saline-treated control cells (FIG. 3C). Mean intracellular fluorescence for 3-nitrotyrosine was quantified and compared between each treatment group (FIG. 3D).

[2] = system: primary striatal neurons co-cultured with activated astrocytes; experiment: Astrocyte-neuron co-culture: apoptosis of primary striatal neurons (caspase activity, Annexin V binding); assay type: cell-based, mouse; conditions: astrocytes co-treated with 25 nM for 8 hours, six hours of co-culture; FIG. 6 C-D
Description: Astrocyte Neuron Co-Culture. Cells were isolated as described above and astrocytes grown to confluence on permeable cell culture inserts (BD Biosciences, San Jose, Calif.) prior to treatment. Astrocytes were then treated with MPTP (10 μM), TNF-α (10 pg/ml) and IFN-γ (1 ng/ml) in the presence or absence of DIM-C-pPhtBu (10 μM), Rosiglitazone (10 μM) AMT (25 nM), or DMSO vehicle control for 8 hours. Media was then removed, and the astrocytes washed three times with sterile PBS to prevent carryover of treatment medium to the neurons, and the inserts were placed directly in each well over cultured neurons. Astrocyte-containing inserts were removed following six hours of co-culture, and neuronal caspase activity and phosphatidylserine translocation were measured by widefield fluorescence microscopy using the general cell permeable fluorescent caspase substrate rhodamine 110, bis-(L-aspartic acid amide) and an Annexin V Alexa Fluor 680 conjugate, respectively. Images were acquired using a Zeiss 20× air PlanApochromat objective and at least 10 microscopic fields were examined per treatment group over three independent experiments.
The efficacy of DIM-C-pPhtBu in preventing astrocyte-dependent neuronal apoptosis was examined in FIG. 6. Astrocytes were grown to confluence in cell culture inserts that are permeable to small molecules but prevent direct cell-cell contact. Following treatment of astrocytes with MPTP and TNF-α/IFN-γ in the presence or absence of DIM-C-pPhtBu (10 μM), rosiglitazone (10 μM), the NOS2 inhibitor AMT (25 nM), or DMSO, astrocytes were washed with PBS and co-incubated directly above primary striatal neurons in neurobasal medium. Indices of neuronal apoptosis were then measured using live-cell fluorescence imaging of caspase activity (FIG. 6A) and Annexin V binding (FIG. 6B). […] The DMSO vehicle control had no suppressive effect.
Differing letters denote statistical significance (p<0.05).

CC1CCN=C(N)S1 (stereo not drawn) [AMT, 2-amino-5,6-dihydro-6-methyl-4H-1,3-thiazine]
MPTP-induced increase in 3-nitrotyrosine formation ([1]; 25 nM co-treatment, astrocytes, FIG. 3D): prevented | Protein nitration in primary astrocytes induced by MPTP and TNF-α/IFN-γ ([1]; FIG. 7(D), concentration not given): prevents protein nitration | Apoptosis in co-cultured striatal neurons (caspase activity and Annexin V-binding) [2]: prevented
